Target: bovine cardiac myofibrils (full-length cardiac myosin ATPase in the native sarcomere) (Bos taurus (Bovine), UniProt Q9BE39)
Assay: Skinned bovine cardiac myofibril ATPase assay (PK/LDH-coupled)
Assay type: biochemical
Details: Ca2+ activating to 75% of maximal rate; for CDMF75 IC15: concentration giving 15% inhibition; for IC50: read-out: CDMF75 IC50
Summary of the method: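 Triton-skinned bovine left-ventricle myofibrils (1 mg/mL) in PM 12 buffer (12 mM PIPES, 2 mM MgCl2, pH 6.8) with 50 μM ATP, 0.6 mM EGTA and CaCl2 set for 50% or 75% activation. Steady-state ATPase inhibition followed by PK/LDH-coupled NADH oxidation at 340 nm.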

Sequence of bovine cardiac myofibrils (full-length cardiac myosin ATPase in the native sarcomere) (Q9BE39 whole entry): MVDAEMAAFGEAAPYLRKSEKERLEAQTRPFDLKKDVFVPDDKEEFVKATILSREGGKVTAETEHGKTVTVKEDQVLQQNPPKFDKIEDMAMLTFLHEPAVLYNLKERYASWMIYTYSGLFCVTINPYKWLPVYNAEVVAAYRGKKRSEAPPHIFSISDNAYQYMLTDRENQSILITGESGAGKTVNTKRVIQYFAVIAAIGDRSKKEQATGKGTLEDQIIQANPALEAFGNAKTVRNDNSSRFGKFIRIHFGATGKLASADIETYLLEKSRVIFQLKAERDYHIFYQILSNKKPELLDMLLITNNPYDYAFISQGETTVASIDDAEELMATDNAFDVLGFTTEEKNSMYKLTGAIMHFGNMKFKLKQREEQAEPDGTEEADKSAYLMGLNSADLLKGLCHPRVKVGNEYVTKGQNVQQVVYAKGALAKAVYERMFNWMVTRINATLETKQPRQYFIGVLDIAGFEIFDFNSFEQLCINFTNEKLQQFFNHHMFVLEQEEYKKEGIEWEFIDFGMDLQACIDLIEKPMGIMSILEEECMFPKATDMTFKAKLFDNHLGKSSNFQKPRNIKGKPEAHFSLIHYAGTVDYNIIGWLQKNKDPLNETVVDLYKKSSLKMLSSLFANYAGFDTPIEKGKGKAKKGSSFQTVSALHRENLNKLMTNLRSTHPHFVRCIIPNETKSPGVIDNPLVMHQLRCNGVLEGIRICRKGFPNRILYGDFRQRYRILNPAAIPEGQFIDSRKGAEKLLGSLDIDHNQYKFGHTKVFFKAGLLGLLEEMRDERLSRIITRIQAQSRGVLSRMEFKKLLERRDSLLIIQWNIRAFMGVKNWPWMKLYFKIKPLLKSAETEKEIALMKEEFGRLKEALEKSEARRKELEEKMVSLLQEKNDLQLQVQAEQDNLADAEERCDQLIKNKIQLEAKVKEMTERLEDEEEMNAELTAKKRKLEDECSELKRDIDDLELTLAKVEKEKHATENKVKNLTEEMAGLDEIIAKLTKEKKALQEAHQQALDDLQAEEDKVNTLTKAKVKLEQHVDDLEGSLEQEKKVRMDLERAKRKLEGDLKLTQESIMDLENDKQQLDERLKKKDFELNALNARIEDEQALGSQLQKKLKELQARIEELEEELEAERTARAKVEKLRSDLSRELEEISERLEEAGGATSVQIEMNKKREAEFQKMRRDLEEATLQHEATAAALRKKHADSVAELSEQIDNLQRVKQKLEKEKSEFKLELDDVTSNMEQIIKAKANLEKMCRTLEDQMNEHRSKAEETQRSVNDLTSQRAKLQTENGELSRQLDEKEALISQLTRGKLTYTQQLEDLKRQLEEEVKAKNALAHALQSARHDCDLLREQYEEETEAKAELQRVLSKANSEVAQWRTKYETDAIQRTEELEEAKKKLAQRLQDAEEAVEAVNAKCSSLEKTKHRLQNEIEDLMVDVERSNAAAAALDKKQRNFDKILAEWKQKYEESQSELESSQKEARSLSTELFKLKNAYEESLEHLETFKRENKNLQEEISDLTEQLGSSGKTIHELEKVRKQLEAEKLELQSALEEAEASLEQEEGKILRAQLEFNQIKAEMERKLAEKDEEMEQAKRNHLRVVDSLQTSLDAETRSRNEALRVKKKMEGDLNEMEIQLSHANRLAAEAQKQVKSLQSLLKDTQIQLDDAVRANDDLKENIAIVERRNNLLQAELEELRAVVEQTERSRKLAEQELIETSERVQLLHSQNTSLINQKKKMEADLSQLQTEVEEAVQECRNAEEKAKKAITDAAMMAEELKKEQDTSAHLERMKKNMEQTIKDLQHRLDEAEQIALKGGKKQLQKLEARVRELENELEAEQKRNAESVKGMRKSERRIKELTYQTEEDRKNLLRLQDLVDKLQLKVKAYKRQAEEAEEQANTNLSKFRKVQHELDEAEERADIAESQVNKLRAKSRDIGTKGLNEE
Sequence of bovine cardiac myofibrils (full-length cardiac myosin ATPase in the native sarcomere) (P85100 whole entry partner): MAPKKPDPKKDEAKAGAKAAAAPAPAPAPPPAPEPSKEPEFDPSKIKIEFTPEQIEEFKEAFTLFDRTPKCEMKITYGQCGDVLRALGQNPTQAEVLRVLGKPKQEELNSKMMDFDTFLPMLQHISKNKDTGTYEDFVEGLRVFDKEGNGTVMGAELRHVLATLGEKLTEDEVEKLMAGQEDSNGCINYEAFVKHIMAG
Sequence of bovine cardiac myofibrils (full-length cardiac myosin ATPase in the native sarcomere) (Q3SZE5 whole entry partner): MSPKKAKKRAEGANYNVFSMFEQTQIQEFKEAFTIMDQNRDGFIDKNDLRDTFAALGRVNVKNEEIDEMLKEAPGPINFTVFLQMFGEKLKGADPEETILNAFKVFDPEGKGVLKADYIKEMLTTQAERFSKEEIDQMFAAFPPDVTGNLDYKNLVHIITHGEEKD

SMILES	CDMF75 IC15	IC50
CCc1nc(-c2ccc3c(c2)CC[C@H]3NC(=O)c2cc(CO)ccc2C)no1 [Compound 651, (R)-N-(5-(5-ethyl-1,2,4-oxadiazol-3-yl)-2,3-dihydro-1H-inden-1-yl)-5-(hydroxymethyl)-2-methylbenzamide]	4600 nM	22600 nM
CCc1nc(-c2ccc3c(c2)CC[C@H]3NC(=O)c2cc(CO)ccn2)no1 [Compound 652, (R)-N-(5-(5-ethyl-1,2,4-oxadiazol-3-yl)-2,3-dihydro-1H-inden-1-yl)-4-(hydroxymethyl)picolinamide]	500 nM	1500 nM
CCc1nc(-c2ccc3c(c2)CC[C@H]3NC(=O)c2cccc(CO)c2)no1 [Compound 653, (R)-N-(5-(5-ethyl-1,2,4-oxadiazol-3-yl)-2,3-dihydro-1H-inden-1-yl)-3-(hydroxymethyl)benzamide]	200 nM	700 nM
CCc1nc(-c2ccc3c(c2)CC[C@H]3NC(=O)c2cccc(CO)c2F)no1 [Compound 654, (R)-N-(5-(5-ethyl-1,2,4-oxadiazol-3-yl)-2,3-dihydro-1H-inden-1-yl)-2-fluoro-3-(hydroxymethyl)benzamide]	600 nM	2200 nM
C=Cc1cc(C(=O)N[C@@H]2CCc3cc(-c4noc(CC)n4)ccc32)ccn1 [Compound 655, (R)-N-(5-(5-ethyl-1,2,4-oxadiazol-3-yl)-2,3-dihydro-1H-inden-1-yl)-2-vinylisonicotinamide]	600 nM	1900 nM
O=C(N[C@@H]1CCc2cc(-c3noc(C(F)F)n3)ccc21)c1ccc(=O)n(CCO)c1 [Compound 656, (R)-N-(5-(5-(difluoromethyl)-1,2,4-oxadiazol-3-yl)-2,3-dihydro-1H-inden-1-yl)-1-(2-hydroxyethyl)-6-oxo-1,6-dihydropyridine-3-carboxamide]	1900 nM	8100 nM
C=Cc1cccc(C(=O)N[C@@H]2CCc3cc(-c4noc(CC)n4)ccc32)c1 [Compound 657, (R)-N-(5-(5-ethyl-1,2,4-oxadiazol-3-yl)-2,3-dihydro-1H-inden-1-yl)-3-vinylbenzamide]	300 nM	700 nM
CCc1nc(-c2ccc3c(c2)CC[C@H]3NC(=O)c2cccc(C=O)c2)no1 [Compound 658, (R)-N-(5-(5-ethyl-1,2,4-oxadiazol-3-yl)-2,3-dihydro-1H-inden-1-yl)-3-formylbenzamide]	300 nM	900 nM
CCc1nc(-c2ccc3c(c2)CC[C@H]3NC(=O)c2cccc(CCO)c2)no1 [Compound 659, (R)-N-(5-(5-ethyl-1,2,4-oxadiazol-3-yl)-2,3-dihydro-1H-inden-1-yl)-3-(2-hydroxyethyl)benzamide]	500 nM	1700 nM
CCc1cc(C(=O)N[C@@H]2CCc3cc(-c4noc(CC)n4)ccc32)ccn1 [Compound 660, (R)-2-ethyl-N-(5-(5-ethyl-1,2,4-oxadiazol-3-yl)-2,3-dihydro-1H-inden-1-yl)isonicotinamide]	600 nM	2000 nM
O=C(N[C@@H]1CCc2cc(-c3noc(C(F)F)n3)ccc21)c1cccc(CO)c1 [Compound 661, (R)-N-(5-(5-(difluoromethyl)-1,2,4-oxadiazol-3-yl)-2,3-dihydro-1H-inden-1-yl)-3-(hydroxymethyl)benzamide]	300 nM	1100 nM
O=C(N[C@@H]1CCc2cc(-c3noc(C(F)F)n3)ccc21)c1cccc(CO)c1F [Compound 662, (R)-N-(5-(5-(difluoromethyl)-1,2,4-oxadiazol-3-yl)-2,3-dihydro-1H-inden-1-yl)-2-fluoro-3-(hydroxymethyl)benzamide]	1600 nM	7200 nM
O=C(N[C@@H]1CCc2cc(-c3noc(C(F)F)n3)ccc21)c1cc(CO)ccc1F [Compound 663, (R)-N-(5-(5-(difluoromethyl)-1,2,4-oxadiazol-3-yl)-2,3-dihydro-1H-inden-1-yl)-2-fluoro-5-(hydroxymethyl)benzamide]	2300 nM	19600 nM
O=C(N[C@@H]1CCc2cc(-c3noc(C(F)F)n3)ccc21)c1ccnc(CO)c1 [Compound 665, (R)-N-(5-(5-(difluoromethyl)-1,2,4-oxadiazol-3-yl)-2,3-dihydro-1H-inden-1-yl)-2-(hydroxymethyl)isonicotinamide]	400 nM	1800 nM
O=C(N[C@@H]1CCc2cc(-c3noc(C(F)F)n3)ccc21)c1cc(CO)ccn1 [Compound 666, (R)-N-(5-(5-(difluoromethyl)-1,2,4-oxadiazol-3-yl)-2,3-dihydro-1H-inden-1-yl)-4-(hydroxymethyl)picolinamide]	800 nM	3400 nM
O=C(N[C@@H]1CCc2cc(-c3noc(C(F)F)n3)ccc21)c1cc(CO)ccn1 [Compound 667, (R)-N-(5-(5-(difluoromethyl)-1,2,4-oxadiazol-3-yl)-2,3-dihydro-1H-inden-1-yl)-4-(hydroxymethyl)picolinamide]	900 nM	3700 nM

SMILES	CDMF75 IC15	IC50
COCc1nc(-c2ccc3c(c2)CC[C@H]3NC(=O)c2cccc(CO)c2)no1 [Compound 668, (R)-3-(hydroxymethyl)-N-(5-(5-(methoxymethyl)-1,2,4-oxadiazol-3-yl)-2,3-dihydro-1H-inden-1-yl)benzamide]	600 nM	2200 nM
COCc1nc(-c2ccc3c(c2)CC[C@H]3NC(=O)c2cccc(CO)c2)no1 [Compound 669, (R)-3-(hydroxymethyl)-N-(5-(5-(methoxymethyl)-1,2,4-oxadiazol-3-yl)-2,3-dihydro-1H-inden-1-yl)benzamide]	500 nM	2300 nM
COCc1nc(-c2ccc3c(c2)CC[C@H]3NC(=O)c2cccc(CO)c2F)no1 [Compound 670, (R)-2-fluoro-3-(hydroxymethyl)-N-(5-(5-(methoxymethyl)-1,2,4-oxadiazol-3-yl)-2,3-dihydro-1H-inden-1-yl)benzamide]	5800 nM	26600 nM
COCc1nc(-c2ccc3c(c2)CC[C@H]3NC(=O)c2cc(CO)ccc2F)no1 [Compound 671, (R)-2-fluoro-5-(hydroxymethyl)-N-(5-(5-(methoxymethyl)-1,2,4-oxadiazol-3-yl)-2,3-dihydro-1H-inden-1-yl)benzamide]	6500 nM	30200 nM
COCc1nc(-c2ccc3c(c2)CC[C@H]3NC(=O)c2cc(CO)ccn2)no1 [Compound 672, (R)-4-(hydroxymethyl)-N-(5-(5-(methoxymethyl)-1,2,4-oxadiazol-3-yl)-2,3-dihydro-1H-inden-1-yl)picolinamide]	3200 nM	13700 nM
COCc1nc(-c2ccc3c(c2)CC[C@H]3NC(=O)c2cc(CO)ccn2)no1 [Compound 673, (R)-4-(hydroxymethyl)-N-(5-(5-(methoxymethyl)-1,2,4-oxadiazol-3-yl)-2,3-dihydro-1H-inden-1-yl)picolinamide]	2800 nM	13000 nM
O=C(N[C@@H]1CCc2cc(-c3noc(C(F)F)n3)ccc21)c1cc(O)no1 [Compound 674, (R)-N-(5-(5-(difluoromethyl)-1,2,4-oxadiazol-3-yl)-2,3-dihydro-1H-inden-1-yl)-3-hydroxyisoxazole-5-carboxamide]	1900 nM	7400 nM
Cc1c(C(=O)N[C@@H]2CCc3cc(-c4noc(C(F)F)n4)ccc32)cnn1CCO [Compound 675, (R)-N-(5-(5-(difluoromethyl)-1,2,4-oxadiazol-3-yl)-2,3-dihydro-1H-inden-1-yl)-1-(2-hydroxyethyl)-5-methyl-1H-pyrazole-4-carboxamide]	800 nM	2700 nM
Cc1ncc(C(=O)N[C@@H]2CCc3cc(-c4noc(C(F)F)n4)ccc32)s1 [Compound 676, (R)-N-(5-(5-(difluoromethyl)-1,2,4-oxadiazol-3-yl)-2,3-dihydro-1H-inden-1-yl)-2-methylthiazole-5-carboxamide]	500 nM	1800 nM
Cc1nocc1C(=O)N[C@@H]1CCc2cc(-c3noc(C(F)F)n3)ccc21 [Compound 677, (R)-N-(5-(5-(difluoromethyl)-1,2,4-oxadiazol-3-yl)-2,3-dihydro-1H-inden-1-yl)-3-methylisoxazole-4-carboxamide]	300 nM	900 nM
Cc1ncc(C(=O)N[C@@H]2CCc3cc(-c4noc(C(F)F)n4)ccc32)n1C [Compound 678, (R)-N-(5-(5-(difluoromethyl)-1,2,4-oxadiazol-3-yl)-2,3-dihydro-1H-inden-1-yl)-1,2-dimethyl-1H-imidazole-5-carboxamide]	700 nM	2300 nM
Cc1cc(C(=O)N[C@@H]2CCc3cc(-c4noc(C(F)F)n4)ccc32)on1 [Compound 679, (R)-N-(5-(5-(difluoromethyl)-1,2,4-oxadiazol-3-yl)-2,3-dihydro-1H-inden-1-yl)-3-methylisoxazole-5-carboxamide]	800 nM	3000 nM
COc1cc(C(=O)N[C@@H]2CCc3cc(-c4noc(C(F)F)n4)ccc32)on1 [Compound 680, (R)-N-(5-(5-(difluoromethyl)-1,2,4-oxadiazol-3-yl)-2,3-dihydro-1H-inden-1-yl)-3-methoxyisoxazole-5-carboxamide]	500 nM	1700 nM
Cc1cnc(C(=O)N[C@@H]2CCc3cc(-c4noc(C(F)F)n4)ccc32)o1 [Compound 681, (R)-N-(5-(5-(difluoromethyl)-1,2,4-oxadiazol-3-yl)-2,3-dihydro-1H-inden-1-yl)-5-methyloxazole-2-carboxamide]	1300 nM	5900 nM
O=C(N[C@@H]1CCc2cc(-c3noc(C(F)F)n3)ccc21)c1ocnc1C(F)(F)F [Compound 682, (R)-N-(5-(5-(difluoromethyl)-1,2,4-oxadiazol-3-yl)-2,3-dihydro-1H-inden-1-yl)-4-(trifluoromethyl)oxazole-5-carboxamide]	400 nM	1600 nM
